Assays:
PC-9 = experiment: Cell proliferation inhibition experiment, CellTiter-Glo (CTG) method; format: cell-based; conditions: PC-9 cells, 3 days
Summary of the method: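 Cells in log-phase growth (viability above 90% by trypan blue) were seeded at 90 μL per well in black-walled, clear-bottom 96-well plates and incubated overnight at 37° C., 5% CO2. A T0 plate was read the next day. Test compounds were added at nine concentrations in triplicate with a solvent control. Viability was measured by CellTiter-Glo luminescence on EnVision, and IC50 came from non-linear S-curve fitting in GraphPad Prism 5.0.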

NCI-H1975 = experiment: as above; format: cell-based; conditions: for IC50: NCI-H1975 cells, CTG, 3 days; for A-431/NCI-H1975 Selectivity: ratio of A-431 IC50 to NCI-H1975 IC50
Summary of the method: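 NCI-H1975 cells with viability above 90% by trypan blue were seeded at 90 μL per well in black 96-well plates and incubated overnight at 37° C., 5% CO2. Compounds were added at nine concentrations in triplicate, and viability was measured with CellTiter-Glo luminescence on EnVision. IC50 came from non-linear S-curve fitting in GraphPad Prism 5.0.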

P-gp = biological target: T1, P-gp (Homo sapiens, UniProt P08183); experiment: P-gp substrate evaluation experiment (MDCKII-MDR1 Transwell drug penetration test); format: in vitro ADME; conditions: dog, MDCK-MDR1, pH 7.4; read-out: ER (Efflux Ratio)
T1 construct: expressed in transfected cells; host or cells: MDCKII-MDR1 (MDCKII canine kidney cells expressing MDR1)
T1 sequence (P08183 whole entry): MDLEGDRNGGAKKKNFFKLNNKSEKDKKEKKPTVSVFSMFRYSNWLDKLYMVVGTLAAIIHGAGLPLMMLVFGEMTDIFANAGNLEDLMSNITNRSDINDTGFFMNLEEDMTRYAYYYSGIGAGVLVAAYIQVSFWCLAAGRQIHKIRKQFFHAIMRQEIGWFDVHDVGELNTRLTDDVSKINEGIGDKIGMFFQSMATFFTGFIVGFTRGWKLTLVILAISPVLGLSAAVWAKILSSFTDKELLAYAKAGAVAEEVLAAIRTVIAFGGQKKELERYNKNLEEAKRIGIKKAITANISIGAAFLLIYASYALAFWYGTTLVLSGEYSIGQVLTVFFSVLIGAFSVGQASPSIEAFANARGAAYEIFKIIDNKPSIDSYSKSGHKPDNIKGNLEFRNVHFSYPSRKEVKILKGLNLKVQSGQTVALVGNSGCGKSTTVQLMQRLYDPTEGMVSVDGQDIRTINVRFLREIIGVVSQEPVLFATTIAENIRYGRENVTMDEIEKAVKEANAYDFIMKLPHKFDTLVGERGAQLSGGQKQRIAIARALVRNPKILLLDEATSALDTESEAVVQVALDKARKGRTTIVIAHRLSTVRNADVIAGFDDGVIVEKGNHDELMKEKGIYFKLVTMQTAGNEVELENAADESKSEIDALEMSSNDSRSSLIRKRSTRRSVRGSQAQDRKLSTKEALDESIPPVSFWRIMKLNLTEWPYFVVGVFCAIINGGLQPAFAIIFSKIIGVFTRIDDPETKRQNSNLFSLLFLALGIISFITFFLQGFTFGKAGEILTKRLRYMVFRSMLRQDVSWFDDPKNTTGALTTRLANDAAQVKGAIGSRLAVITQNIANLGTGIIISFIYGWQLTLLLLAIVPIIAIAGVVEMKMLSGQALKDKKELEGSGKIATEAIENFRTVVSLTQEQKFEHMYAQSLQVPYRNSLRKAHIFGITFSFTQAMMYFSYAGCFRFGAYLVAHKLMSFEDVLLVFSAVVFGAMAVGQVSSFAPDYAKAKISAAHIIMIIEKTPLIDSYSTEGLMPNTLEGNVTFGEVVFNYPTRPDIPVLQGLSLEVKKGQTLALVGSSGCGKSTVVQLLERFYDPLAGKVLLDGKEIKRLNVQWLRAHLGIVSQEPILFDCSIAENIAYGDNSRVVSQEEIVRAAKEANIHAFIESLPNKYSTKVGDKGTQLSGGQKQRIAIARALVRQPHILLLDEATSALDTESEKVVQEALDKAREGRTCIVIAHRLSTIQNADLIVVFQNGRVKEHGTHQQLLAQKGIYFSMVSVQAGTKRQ
Description: P-gp Substrate Evaluation Experiment
Cell Culture • 1) High glucose DMEM medium containing L-glutamine was used and 10% fetal bovine serum, 0.1 mg/mL streptomycin and 0.6 mg/mL penicillin were added. • 2) MDCKII-MDR1 was cultured in a T-75 cell culture bottle. The incubator was set at the condition of 37° C., 5% CO2 and 95% relative humidity. Cells could be inoculated in Transwell when the cell confluence reached 70-90%. • 3) Before cell plant, 50 μL cell culture medium was added to each well in the upper chamber of the Transwell, and […] cell culture medium was added to the lower chamber of the Transwell.
Inoculation of MDCKII-MDR1 Cells • 1) Cell suspension was added to the upper chamber of the 96-well Transwell plate with […] each well, and the final inoculation density was 5.45×10^5 cells/cm^2. • 2) The medium was changed 48 hours after inoculation, the culture was carried out for 4-7 days, and the medium was changed every other day.
Evaluation of Cell Monolayer Integrity • 1) After 4-7 days of culture, MDCKII-MDR1 and MDKII should merge and differentiate completely. At this time, they could be applied to penetration test. • 2) The resistance of cell monolayer was measured by a resistance meter (Millipore, USA) and the resistance of each well was recorded. • 3) After finishing the detection, the Transwell plate was put back into the incubator. • 4) Resistance value was calculated: Resistance measured (ohms)×layer area (cm^2)=TEER value (ohm·cm^2)
If TEER value was less than 42 ohms·cm^2, the well can not be used for penetration testing.
Drug Penetration Test • 1) The MDCKII-MDR1 Transwell plate was taken out from the incubator. The cell monolayer was rinsed with HBSS buffer (25 mM HEPES, pH 7.4) twice and incubated for 30 minutes at 37° C. • 2) The transport rate of compounds from the top to the bottom was determined. […] 70 μL supernatant was drawn, diluted with equal volume of water and then subjected to LC-MS/MS analysis. All samples were prepared in three parallel ways. • 6) The cell monolayer integrity after 2-hour incubation was evaluated by leakage of fluorescent yellow, HBSS (25 mM HEPES, pH 7.4) was used to dilute the stock solution of fluorescent yellow till the final concentration was 100 μM. 100 μL fluorescent yellow solution was added to each well in the upper chamber of the Transwell plate and 300 μL HBSS (25 mM HEPES, pH 7.4) was added to each well in the lower chamber of the Transwell plate. After incubation at 37° C. for 30 minutes, 80 μL solution was drawn respectively from each well in the upper and lower chamber to a new 96-well plate. The fluorescence was determined at 485 nm as excitation wavelength and 530 nm as emission wavelength by using a microplate reader.
Data calculation was carried out through Excel, the apparent permeability index (Papp, cm/s) of compounds was calculated through the formula shown as follow: […]
wherein, the membrane area in the formula is the membrane area of Transwell-96 plate (0.143 cm^2); the unit of incubation time is second (s).
Efflux ratio was calculated through the formula shown as follow: […]

A-431 = experiment: Cell proliferation inhibition experiment, CellTiter-Glo (CTG) method; format: cell-based; conditions: A-431 cells, 3 days
Summary of the method: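 Cells seeded overnight at 37 °C, 5% CO2, then treated with nine 3-fold dilutions in triplicate, top 30 μM for A-431 and 1.111 μM for NCI-H1975 and PC-9; solvent control. After 3 days, viability read by CellTiter-Glo luminescence; IC50 from non-linear sigmoidal fit of survival rate.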

SMILES | IC50 (PC-9; Homo sapiens, PC-9, 72 h) [nM] | IC50 (NCI-H1975; Homo sapiens, NCI-H1975, 72 h) [nM] | A-431/NCI-H1975 Selectivity (NCI-H1975) | efflux ratio at 2 h (P-gp) | IC50 (A-431; Homo sapiens, A-431, 72 h) [nM] | IC50 (PC-9) [nM] | IC50 (NCI-H1975) [nM] | IC50 (A-431) [nM]
C=CC(=O)Nc1cc(Nc2cc(-c3ccc4c(cnn4C)c3)ncn2)c(OC)cc1N1CCC(N2CCN(C(C)=O)CC2)CC1 [compound 129] | 13.1 | 8 | 93.3 | 55.7 | 746 | – | – | –
C=CC(=O)Nc1cc(Nc2nccc(-c3ccc4c(cnn4C)c3)n2)c(OC)cc1N1CCC(N2CCCC2)CC1 [compound 68] | 15.3 | 14.7 | 62.7 | 8.98 | 921 | – | – | –
C=CC(=O)Nc1cc(Nc2cc(-c3ccc4ncsc4c3)ncn2)c(OC)cc1NCCN(C)C [compound 251] | 7 | 12.5 | 88.2 | 42.6 | 1100 | – | – | –
C=CC(=O)Nc1cc(Nc2cc(-c3ccc4c(cnn4C)c3)ncn2)c(OC)cc1N1CCC(N2CCCC2)CC1 [compound 108] | 5.7 | 3.2 | 177.3 | 18.1 | 567 | – | – | –
C=CC(=O)Nc1c(N(C)CCN(C)C)cc(OC)c(Nc2cc(-c3ccc4cnn(C)c4c3)ncn2)c1F [compound 172] | 16.3 | 18.6 | 51.3 | 43.9 | 954 | – | – | –
C=CC(=O)Nc1cc(Nc2cc(-c3ccc4c(cnn4C)c3)ncn2)c(OC)cc1OCCN(C)C [compound 104] | 14.2 | 6 | 90.6 | 3.12 | 544 | – | – | –
C=CC(=O)Nc1cc(Nc2cc(-c3ccc4c(cnn4C)c3)ncn2)c(OC)cc1N1CC(C)N(C)C(C)C1 (stereo not shown) [compound 23] | 9 | 13.7 | 45.0 | 4.28 | 617 | – | – | –
C=CC(=O)Nc1cc(Nc2cc(-c3ccc4c(cnn4C)c3)ncn2)c(OC)cc1N1CCC(N2CCOCC2)CC1 [compound 27] | – | – | 27.2 | 1.67 | – | 21.6 | 14.2 | 387
C=CC(=O)Nc1cc(Nc2cc(-c3ccc4c(cnn4C)c3)ncn2)c(OC)cc1N1CCC(N(C)C)CC1 [compound 26] | 9.1 | 10.4 | 20.7 | 5.79 | 216 | – | – | –
C=CC(=O)Nc1cc(Nc2cc(-c3ccc4cnn(C)c4c3)ncn2)c(OC(F)F)cc1N(C)CCN(C)C [compound 176] | 4.8 | 21.2 | 50.9 | 3.98 | 1080 | – | – | –
C=CC(=O)Nc1cc(Nc2cc(-c3ccc4c(cnn4C)c3)ncn2)c(OC)cc1N(C)CCN1CCN(C)CC1 [compound 60] | 9.6 | 10.6 | 217.0 | 6.49 | 2300 | – | – | –
C=CC(=O)Nc1cc(Nc2cc(-c3ccc4cnn(C)c4c3)ncn2)c(OC(F)F)cc1N1CCC(N2CCCC2)CC1 [compound 164] | 23.2 | 12.6 | 46.9 | 34.4 | 591 | – | – | –
C=CC(=O)Nc1cc(Nc2cc(-c3ccc4c(cnn4C)c3)ncn2)c(OC)cc1N(C)CCN(CC)CC [compound 62] | 15.7 | 33.5 | 35.0 | 2.44 | 1170 | – | – | –
COc1cc(N(C)CCN(C)C)c(NC(=O)/C=C/CN(C)C)cc1Nc1cc(-c2ccc3c(cnn3C)c2)ncn1 [compound 131] | 14.8 | 9.6 | 60.2 | 51.7 | 578 | – | – | –
C=CC(=O)Nc1cc(Nc2cc(-c3ccc4cnn(C)c4c3)ncn2)c(OC)cc1N1CCC(N(C)C)CC1 [compound 173] | 7.3 | 22.7 | 46.5 | 32.2 | 1050 | – | – | –
C=CC(=O)Nc1cc(Nc2cc(-c3ccc4c(cnn4C)c3)ncn2)c(OC)cc1N1CCN(C)CC1 [compound 8] | 27.3 | 3.5 | 251.1 | 3.14 | 872 | – | – | –
C=CC(=O)Nc1cc(Nc2cc(-c3ccc4c(cnn4C)c3)ncn2)c(OC(F)F)cc1N(C)CCNC(C)(C)C [compound 120] | 6.7 | 8.2 | 73.0 | – | 598 | – | – | –
C=CC(=O)Nc1cc(Nc2cc(-c3ccc4c(cnn4C)c3)ncn2)c(OC)cc1N1CCN(CC)CC1 [compound 18] | 8.9 | 11.1 | 88.8 | – | 983 | – | – | –
C=CC(=O)Nc1cc(Nc2nccc(-c3ccc4c(cnn4C)c3)n2)c(OC)cc1N(C)CCN(CC)CC [compound 239] | 67.9 | 33 | 47.8 | – | 1580 | – | – | –
C=CC(=O)Nc1cc(Nc2cc(-c3ccc4c(cnn4C)c3)ncn2)c(OC(F)F)cc1OCCN(C)C [compound 171] | 38 | 26.2 | 28.4 | – | 743 | – | – | –
C=CC(=O)Nc1cc(Nc2cc(-c3ccc4nc(C)sc4c3)ncn2)c(OC)cc1N(C)CCN(C)C [compound 65] | 12 | 10.9 | 70.2 | – | 765 | – | – | –

— US11352352B2, “Aminopyrimidine compound, preparation method therefor and use thereof” (BEIJING ADAMADLE BIOTECHNOLOGY LIMITED LIABILITY COMPANY, priority 2017, dated 2022)
